Tested on: MPNST complex spheroid with HUVEC/MSC, growth, % test/control
Assay: Anticancer human tumor MPNST cell line growth inhibition [Asc];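 note: compounds left on spheroids for seven days before reading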
Conditions: for IC50: curve of first compound; for viability, T/C: stronger effect = lower value
Protocol: Multicellular complex tumor spheroid response to apoptosis pathway targeting inhibitors Alrizomadlin, Pelcitoclax, and Dasminapant in combination with a variety of drugs and investigational agents in selected tumor cell lines
The MDM2 inhibitor alrizomadlin, the Bcl-2/Bcl-xL inhibitor pelcitoclax, and the IAPs inhibitor dasminapant were evaluated both individually and in combination with standard of care and investigational anticancer small molecules within a complex spheroid model of solid tumors. . Complex spheroids include a stromal component modeled by human endothelial cells (HUVEC) and fibroblasts modeled by human mesenchymal stem cells (MSCs). The concentration ranges selected for each drug and investigational agent were based upon clinically achievable concentrations if the clinical Cmax of the agent was known.
Compounds. The drugs and investigational agents: alrizomadlin (APG-115; NSC831270), pelcitoclax (APG-1252; NSC835773), dasminapant (APG-1387;NSC834197), TAK-243 (NSC785004), copanlisib (NSC809693), olaparib (NSC753686), talazoparib (NSC767125), cobimetinib (NSC 768068), eltanexor (KPT-8602, NSC 794443), abemaciclib (NSC 768073), sotorasib (NSC818433), adagrasib (NSC 831453), MRTX-1133 (NSC 836407), Iadademestat (ORY1001, NSC 806812), and RMC-4630 (NSC839698), were obtained from the NCI Developmental Therapeutics Program Chemical Repository. The FDA-approved anticancer drug set is available from the Developmental Therapeutics Program at https://dtp.cancer.gov/organization/dscb/obtaining/available plates.htm. […] The stock solutions were prepared in dimethyl sulfoxide (DMSO, Sigma-Aldrich, St. Louis, MO, cat. D2650) at 800-fold the tested concentration and stored at -70 degrees C prior to their use. All drugs and investigational agents were tested over a range starting from a high concentration at or near the clinical Cmax and decreasing in half-log increments. If the clinical Cmax for an agent had not been determined, the highest concentration tested was 10 microM.
The patient-derived cancer (PDC) cell lines include five colon adenocarcinomas: 186277-243-T-J2-PDC, 616215-338-R-J1-PDC, 439559-082-T-J2-PDC, 463943-066-T-J2-PDC, and 519858-162-T-J1-PDC; three pancreatic carcinomas: 323965-272-R-J2-PDC, 521955-158-R6-J3-PDC, and 521955-158-R2-J5-PDC; two uterine sarcomas: 327498-152-R-J2-PDC and 993429-296-R-J1-PDC; two rhabdomyosarcomas: 755483-174-R-J1-PDC and 772245-204-R-J1-PDC; two soft tissue sarcomas: 126254-015-R-J1-PDC and 494315-158-R-J1-PDC; two malignant fibrous histiocytomas: 317291-083-R-J1-PDC and 596521-263-R-J1-PDC; two breast carcinomas: 171881-019-R-J1-PDC and 885512-296-R-J2-PDC; and one ovarian carcinoma: 6556581-035-R-J-PDC were obtained from the NCI PDMR, (https://pdmr.cancer.gov). The established cell lines HSSY-2 synovial sarcoma (RRID:CVCL 8719), SYO-1 synovial sarcoma (RRID:CVCL_7146), MPNST malignant peripheral neural sheath tumor were obtained from the Sloan Kettering Institute. The following established cell lines were purchased from the American Type Culture Collection (ATCC, Manassas, VA), Sor the received from the NCI repository:, PANC-1 pancreatic carcinoma (CRL-1469, RRID:CVCL_0480), OVCAR-5 ovarian carcinoma (RRID:CVCL_1628), OVCAR-8 ovarian carcinoma (RRID:CVCL_1629), , MCF-7 breast carcinoma (CRL-12584, RRID:CVCL_0031), MDA-MB-231 breast carcinoma (CRL-12532, RRID:CVCL_0062), NCI-H1876 small cell lung carcinoma (CRL-5902, RRID:CVCL_1503), NCI-H510A small cell lung carcinoma (HTB-184, RRID:CVCL_1565), NCI-H1417 (CRL-5869, RRID:CVCL_1469), and NCI-H196 small cell lung carcinoma (CRL-5823, RRID:CVCL_1509). Dr. Peter Houghton (Greehey Children's Cancer Research Institute, University of Texas Health Science Center, San Antonio, TX) provided Rh-18 rhabdomyosarcoma (RRID:CVCL_1659). Pooled donor human umbilical vein endothelial cells (HUVEC, Lonza, cat. CC-2519) and human mesenchymal stem cells (hMSC, Lonza, cat. PT-2501) were purchased from Lonza (Walkersville, MD).
Cell Culture. […]

Work on `Cn1ncnc1[C@H]1c2n[nH]c(=O)c3cc(F)cc(c23)N[C@@H]1c1ccc(F)cc1` + CNC(C)C(=O)NC1CN(S(=O)(=O)c2cccc(S(=O)(=O)N3CCC4CCC(C(=O)NC(c5ccccc5)c5ccccc5)N4C(=O)C(NC(=O)C(C)NC)C3)c2)CCC2CCC(C(=O)NC(c3ccccc3)c3ccccc3)N2C1=O yielded an IC50 (second compound 0.00316 µM) of less than 0.316 nM, an IC50 (second compound 0.01 µM) of 1.09 nM and an IC50 (second compound 0.0316 µM) of 23.2 nM. For the same molecule, the IC50 (second compound 0.1 µM) was 82.1 nM, the IC50 (second compound 0.316 µM) was 26.7 nM and the IC50 (second compound 1 µM) was 96.7 nM. The viability, T/C (second compound 0.00316 µM, first compound 0.000316 µM) was 12.2%, the viability, T/C (second compound 0.00316 µM, first compound 0.001 µM) was 11.4% and the viability, T/C (second compound 0.00316 µM, first compound 0.00316 µM) was 10.4%. It also gave a viability, T/C (second compound 0.00316 µM, first compound 0.01 µM) of 11.5%, a viability, T/C (second compound 0.00316 µM, first compound 0.0316 µM) of 11.3% and a viability, T/C (second compound 0.00316 µM, first compound 0.1 µM) of 10.7%. The viability, T/C (second compound 0.01 µM, first compound 0.000316 µM) was 58.8%, the viability, T/C (second compound 0.01 µM, first compound 0.001 µM) was 46.2% and the viability, T/C (second compound 0.01 µM, first compound 0.00316 µM) was 50.8%. The viability, T/C (second compound 0.01 µM, first compound 0.01 µM) was 37.4%, the viability, T/C (second compound 0.01 µM, first compound 0.0316 µM) was 32.5% and the viability, T/C (second compound 0.01 µM, first compound 0.1 µM) was 34.8%. It also gave a viability, T/C (second compound 0.0316 µM, first compound 0.000316 µM) of 77.7%, a viability, T/C (second compound 0.0316 µM, first compound 0.001 µM) of 73.9% and a viability, T/C (second compound 0.0316 µM, first compound 0.00316 µM) of 73.6%. The viability, T/C (second compound 0.0316 µM, first compound 0.01 µM) was 65.4%, the viability, T/C (second compound 0.0316 µM, first compound 0.0316 µM) was 43.5% and the viability, T/C (second compound 0.0316 µM, first compound 0.1 µM) was 45.2%. It also gave a viability, T/C (second compound 0.1 µM, first compound 0.000316 µM) of 90.3%, a viability, T/C (second compound 0.1 µM, first compound 0.001 µM) of 64.1% and a viability, T/C (second compound 0.1 µM, first compound 0.00316 µM) of 70.6%. For the same molecule, the viability, T/C (second compound 0.1 µM, first compound 0.01 µM) was 74.7%, the viability, T/C (second compound 0.1 µM, first compound 0.0316 µM) was 61.1% and the viability, T/C (second compound 0.1 µM, first compound 0.1 µM) was 46.4%. The viability, T/C (second compound 0.316 µM, first compound 0.000316 µM) was 76.2%, the viability, T/C (second compound 0.316 µM, first compound 0.001 µM) was 62.5% and the viability, T/C (second compound 0.316 µM, first compound 0.00316 µM) was 88.4%. For the same molecule, the viability, T/C (second compound 0.316 µM, first compound 0.01 µM) was 57.5%, the viability, T/C (second compound 0.316 µM, first compound 0.0316 µM) was 51.3% and the viability, T/C (second compound 0.316 µM, first compound 0.1 µM) was 46.1%. For the same molecule, the viability, T/C (second compound 1 µM, first compound 0.000316 µM) was 51.3%, the viability, T/C (second compound 1 µM, first compound 0.001 µM) was 68.3% and the viability, T/C (second compound 1 µM, first compound 0.00316 µM) was 49.5%. The viability, T/C (second compound 1 µM, first compound 0.01 µM) was 73.9%, the viability, T/C (second compound 1 µM, first compound 0.0316 µM) was 53.9% and the viability, T/C (second compound 1 µM, first compound 0.1 µM) was 50.1%.

Reference: PubChem BioAssay AID1963442 (Molecular Pharmacology Branch, DTP, NCI, 2024)
